Values quoted from earlier work, collected in US5843713A, “Peptide sequence that forms mucin sugar chain and technique for modifying protein to be linked with mucin sugar chain” (Kirin Beer Kabushiki Kaisha, priority 1994, dated 1998).

Experiments:
[1] = test system: O-GalNAc T derived from swine submaxillary gland; conditions: literature, Biochemistry Vol.18 (1979)
[2] = test system: crude enzyme solution of O-GalNAc T extracted from human breast cancer cells MCF7; conditions: literature, J. Biol. Chem. Vol.269 (1994)

Row | Substance | GalNAc acceptor activity [1] | transfer of GalNAc [2]
1 | TPRTPPP [literature peptide derived from bovine myelin basic protein] | highly active GalNAc acceptors | –
2 | PDTRPAPGS [literature peptide analogous to repetitive region of human mucin MUC1] | – | no transfer of GalNAc is observed
3 | TPPP: literature peptide derived from bovine myelin basic protein (RTPPP) | highly active GalNAc acceptors | –
4 | PRTPPP: literature peptide derived from bovine myelin basic protein | highly active GalNAc acceptors | –
5 | PDTRPPAGS [literature peptide analogous to repetitive region of human mucin MUC1] | – | no transfer of GalNAc is observed
6 | PDTRAPPGS [literature peptide analogous to repetitive region of human mucin MUC1] | – | no transfer of GalNAc is observed
